Measured values: paper PMC9563435, “Comparison of Different Clinical Chemotherapeutical Agents’ Toxicity and Cell Response on Mesenchymal Stem Cells and Cancer Cells” (Cells, 2022)
Structures can show the parent of a compound that is named as a salt. Each block holds one compound with its values, some of them ahead of it.

Assays:
Ad-MSC-GFP 3 cells [1] = experiment: γ-H2AX staining of DNA double-stranded breaks, Ad-MSC-GFP 3; type: cell-based, human; conditions: for DNA double-stranded breaks (γ-H2AX): 120 h, IC50 concentrations of A431 (2 µM cisplatin, 0.1 µM doxorubicin, 30 µM nutlin-3)
Description: (§1) Ad-MSC-GFP 3 cells were seeded into glass-bottomed chamber slides (ibidi, Germany, Grafelfing, Germany) at 1 × 10^4/well and A431-mCh at 1.6 × 10^4/well density. […] Cells in all chambers were fixed with 4% PFA for 15 min and washed twice with PBS. Blocking solution (0.5% BSA-PBS, 0.1% TritonX-100, 5% goat serum, and 1% fish gelatin) was used for 1 h. γ-H2A.X primary antibody (MA1-2022, Invitrogen, United States) was diluted in blocking solution at 1:500 concentration and incubated overnight at 4 °C. Afterwards, the cells were washed with PBS twice and goat anti-mouse A633 secondary antibody (A21052, abcam, Cambridge, UK) was diluted at 1:250 concentration in blocking solution. Nuclei was stained with a Hoechst-33342 (23491-52-3, Dojindo, Kumamoto, Japan) at 1:1000 concentration.
(§2) To quantify DNA damage based on immunofluorescence against γ-H2AX, a semi-automated image analysis pipeline was set up using CellProfiler v4.1.3 [10]. First, images showing DAPI-stained nuclei were pre-processed by intensity normalization and Gaussian filtering (ϭ = 20 px) to suppress noise and remove artifacts caused by debris. Nuclei candidates were identified by threshold-based segmentation; false candidates were removed from the analysis manually. Using the remaining nuclei regions as masks, pixel intensities were measured on the γ-H2AX channel, thus, excluding non-nuclei signals.

A431 cells [2] = experiment: ROS induction (DCFH-DA), A431; type: cell-based, human; conditions: 1 h
Description: (§3) Ad-MSC 3 and A431 cells were seeded in a 96-well tissue culture plate and incubated for 24 h as described above. Cells were washed twice with HBSS and incubated in 100 µL of DCFH-DA dye (R252-10, Dojindo) according to the manufacturer’s instructions. Cells were incubated for 30 min at 37 °C and washed twice with HBSS. […] Supernatant was removed, and the cells were washed with HBSS before imaging with the JuLI^TM Stage Cell History Recorder (NanoEnTek).

Ad-MSC-GFP 3 cells [3] = experiment: Live cell imaging, confluency, Ad-MSC-GFP 3; type: cell-based, human; conditions: for concentration at which significant drops in confluency were seen, as multiple of Ad-MSC-GFP 3 IC50: 120 h live cell imaging
Description: (§4) JuLI™ Stage Cell History Recorder was used to monitor a five-day cytotoxicity assay on Ad-MSC-GFP 3 and A431-mCh cell lines. […] Images were taken every 105 min for 120 h at 10× objective magnification. Live cell microscopy studies were evaluated using the “Growth curve” function of the JuLI STAT image analysis software (v2.0.1.0).

Ad-MSC 3 cells [4] = experiment: ROS induction (DCFH-DA), Ad-MSC 3; type: cell-based, human; conditions: 1 h
Description: as §3

Ad-MSC 3 cells [5] = experiment: Apoptosis assay (Annexin V / TO-PRO-3 flow cytometry), Ad-MSC 3; type: cell-based, human; conditions: for type of cell death in MSCs (in words): high concentrations: doxorubicin 1 µM, nutlin-3 50 µM
Description: Apoptosis detection was based on the Annexin-V molecule binding to phosphatidylserine membrane molecules. Two cell lines were used to study apoptosis: Ad-MSC 3 cells were plated in a 5 × 10^4 cells/well concentration, while 4 × 10^4/well A431-mCh were seeded into each well in a 12-well tissue culture plate. […] At day 5, cells were trypsinized and centrifuged, while the supernatant was also collected and combined with the detached cells to include all already dead cells. Cells were washed twice with 500 µL of 1% BSA-PBS (bovine serum albumin dissolved in PBS, A8022, Sigma-Aldrich, St. Louis, MO, USA) solution and centrifuged at 400× G for 4 min. Cells were resuspended in 100 µL of 1× Annexin Binding Buffer (422201, Biolegend, San Diego, CA, USA), and 3 µL of Annexin V-Pacific Blue (A35122, Biolegend, San Diego, CA, USA) and 1 µL of TO-PRO-3 (R37170, Invitrogen, Waltham, MA, USA) were added to each sample. After 15 min of incubation, labeled and non-labeled samples were diluted 5-fold with 1× Annexin Binding Buffer and analyzed by Attune™ NxT flow cytometer.

A431 cells [6] = experiment: Apoptosis assay (Annexin V / TO-PRO-3 flow cytometry), A431; conditions: 120 h
A431-mCh cells [7] = experiment: Live cell imaging, confluency, A431-mCh; type: cell-based, human; conditions: 120 h; for number of viable colonies in live cell imaging: IC50 of A431-mCh and 10-fold higher concentration; for growth kinetics in live cell imaging: concentration 10-fold lower than A431-mCh IC50
Description: as §4

A431-mCh cells [8] = experiment: γ-H2AX staining of DNA double-stranded breaks, A431-mCh; type: cell-based, human; conditions: for DNA damage (γ-H2AX): 120 h, IC50 concentrations of A431 (2 µM cisplatin, 0.1 µM doxorubicin, 30 µM nutlin-3)
Description: as §1, §2

Ad-MSC 3 cells [9] = experiment: Cell proliferation (CytoTell) and light microscopy after treatment, Ad-MSC 3; type: cell-based, human; conditions: 0.1 µM
Description: (§5) Cell division was analyzed by the fluorescent CytoTell Green dye (AAT Bioquest, Sunnyvale, CA, USA) according to the manufacturer’s guidelines. Briefly, 3 × 10^5 cells were centrifuged and stained with 2 µL of CytoTell dye diluted in 1 mL of serum-free DMEM and incubated at 37 °C for 30 min. After centrifugation, half of the cells (1.5 × 10^5) were plated into T25 cell culture flasks in 5 mL of media and analyzed at day 5. Day 1 samples were co-stained with Zombie Violet dye (423113, Biolegend) to exclude dead cells and analyzed by Attune™ NxT flow cytometry. Brightfield images were taken with the Olympus IX51 microscope. The scale bar is the same in every image.

A431-mCh cells [10] = experiment: Cytotoxicity / cell viability assay (PrestoBlue) on A431; type: cell-based, human; conditions: Homo sapiens, A-431, 120 h; A431, 5 days
Description: (§6) Cells were seeded in a 96-well tissue culture plate in 100 µL of medium. Ad-MSC-GFP 1, iAd-MSC-GFP 1, Ad-MSC-GFP 2, Ad-MSC-GFP 3, BM-MSC, and HFF were seeded at 5 × 10^3/100 µL/well density and A431-mCh, MES-SA-mCh, and MCF-7-GFP at 4 × 10^3 cells/100 µL/well concentration in DMEM-F12 media. Different initial cell numbers were used due to different proliferation rates of different cell types. Cells were allowed to attach overnight at 37 °C and the day after were treated with the drugs using the indicated concentrations in 100 µL. Cell viability was measured by using PrestoBlue™ Cell Viability Reagent (A13232, Invitrogen, Waltham, MA, USA). To address metabolic differences between cancer cells and MSCs, the assay was optimized for each cell line, cells were incubated with 5 or 12.5% PrestoBlue™ Cell Viability Reagent diluted in PBS at 37 °C/5% CO2 for 1–1.5 h 5 days after the treatment. The fluorescence signal was measured by an EnSpire (Perkin Elmer, Waltham, MA, USA) fluorometer at 555 nm (excitation)/585 nm (emission) wavelength.
(§7) After the incubation period, the relative fluorescence data was measured. The data was normalized with the fluorescence of blank samples (cell culture media). […] In these cases, IC50 was calculated from the line connecting the measurement points. For repeated measurements, average and standard deviation was calculated based on the logarithm of the IC50 values.

[11] = test system: 6 MSCs and 3 cancer cell lines; experiment: Cytotoxicity / cell viability assay (PrestoBlue), panel of MSCs and cancer cell lines; type: cell-based, human; conditions: 5 days treatment, IC50 comparison
Description: as §6
as §7, with “media). A sigmoidal dose–response curve was fitted to the normalized measurement data and the logarithm of the concentration using the least square method. An inhibitory concentration of 50% (IC50 and log10) was interpolated from the fitted graph.” for “media).”
To compare the mean IC50 values of six mesenchymal stem cell lines (Group-1) and three cancer cell lines (Group-2), first an F-test was performed to check equal variances between the groups, then two-sample unpaired t-tests were performed to calculate significance using Microsoft® Excel® 2016 (16.0.4266.1001).

Ad-MSC-GFP 3 cells [12] = experiment: Cytotoxicity / cell viability assay (PrestoBlue) on Ad-MSC-GFP 3; type: cell-based, human; conditions: Ad-MSC-GFP 3 / Ad-MSC 3, 5 days
Description: as §6, §7

A431 cells [13] = experiment: Cell proliferation (CytoTell) and light microscopy after treatment, A431; type: cell-based, human; conditions: 0.1 µM
Description: as §5

Ad-MSC 3 cells [14] = experiment: Senescence β-galactosidase staining, Ad-MSC 3; type: cell-based, human; conditions: 4 µM; 5 days treatment then 7 days drug-free
Description: At day 5, media was removed and replaced with 200 µL of completed DMEM-F12 for 7 days. The Senescence β-Galactosidase Staining Kit (9860S, Cell Signaling Technology, Danvers, MA, USA) was used to detect senescent cells. Cells were fixed with fixing solution, washed with PBS, stained with X-gal solution overnight at 37 °C without CO2, and coated with 70% glycerol.

[15] = different concentrations incl. higher

concentration at which significant drops in confluency were seen, as multiple of Ad-MSC-GFP 3 IC50 (Ad-MSC-GFP 3 cells [3]): 3 fold
SMILES: COc1ccc(C2=N[C@@H](c3ccc(Cl)cc3)[C@@H](c3ccc(Cl)cc3)N2C(=O)N2CCNC(=O)C2)c(OC(C)C)c1 [nutlin-3]
DNA double-stranded breaks (γ-H2AX) (Ad-MSC-GFP 3 cells [1]): no DNA break was detected
ROS induction (A431 cells [2]; 30 µM): considerable amount of ROS
ROS induction (Ad-MSC 3 cells [4]; 30 µM): considerable amount of ROS
apoptosis (in words) (Ad-MSC 3 cells [5]; 30 µM, 120 h): only a slight increase in the number of apoptotic MSCs
type of cell death in MSCs (in words) (Ad-MSC 3 cells [5]): necrotic cell death
apoptosis (in words) (A431 cells [6]; 30 µM): modest apoptotic response
effect on cultures in live cell imaging (A431-mCh cells [7]; either concentration, p53 mutant): no effect
DNA damage (γ-H2AX) (A431-mCh cells [8]): massive DNA damage

SMILES: COc1cccc2c1C(=O)c1c(O)c3c(c(O)c1C2=O)C[C@@](O)(C(=O)CO)C[C@@H]3O[C@H]1C[C@H](N)[C@H](O)[C@H](C)O1 [doxorubicin, doxorubicin hydrochloride]
cell number (light microscopy) (Ad-MSC 3 cells [9]): reduced cell number
proliferation (CytoTell) (Ad-MSC 3 cells [9]; five-day treatment): decreased proliferation
DNA double-stranded breaks (γ-H2AX) (Ad-MSC-GFP 3 cells [1]): no DNA break was detected
ROS induction (A431 cells [2]; [15]): did not induce ROS
IC50 (A431-mCh cells [10]): 100 nM
decrease of cultures in live cell imaging (Ad-MSC-GFP 3 cells [3]; 120 h of treatment): no significant decrease
ROS induction (Ad-MSC 3 cells [4]; [15]): did not induce ROS
apoptosis (in words) (Ad-MSC 3 cells [5]; 0.1 µM, 120 h): apoptosis was not detected
apoptosis / cell death (in words) (Ad-MSC 3 cells [5]; concentration increased 10-fold (1 µM), 120 h): only late necrosis was found
type of cell death in MSCs (in words) (Ad-MSC 3 cells [5]): necrotic cell death
apoptosis (in words) (A431 cells [6]; 0.1 µM): apoptosis in almost all A431 cells
number of viable colonies in live cell imaging (A431-mCh cells [7]): significantly reduced the number of viable colonies
growth kinetics in live cell imaging (A431-mCh cells [7]): did not alter growth kinetics
drug sensitivity of MSCs compared with cancer cells (in words) [11]: equally toxic to MSCs and cancer cells
IC50 (Ad-MSC-GFP 3 cells [12]; Homo sapiens, 120 h): 100 nM
cell killing (light microscopy) (A431 cells [13]): killed most of the cancer cells
proliferation (CytoTell) (A431 cells [13]; five-day treatment): decreased proliferation
DNA damage (γ-H2AX) (A431-mCh cells [8]): massive DNA damage

SMILES: N.N.[Cl][Pt][Cl] [cisplatin]
number of double-stranded breaks (γ-H2AX) (Ad-MSC-GFP 3 cells [1]; 10 µM, 5 days): significantly increased the number of double-stranded breaks
DNA double-stranded breaks (γ-H2AX) (Ad-MSC-GFP 3 cells [1]): no DNA break was detected
ROS induction (A431 cells [2]; [15]): did not induce ROS
SA-β-Gal staining (senescence) (Ad-MSC 3 cells [14]): slightly increased SA-ß-Gal staining
concentration at which significant drops in confluency were seen, as multiple of Ad-MSC-GFP 3 IC50 (Ad-MSC-GFP 3 cells [3]): 2 fold
ROS induction (Ad-MSC 3 cells [4]; [15]): did not induce ROS
apoptosis (in words) (Ad-MSC 3 cells [5]; 10 µM (IC50 level of Ad-MSC-GFP 3)): notable amounts of late apoptosic cells
apoptosis compared to untreated controls (in words) (Ad-MSC 3 cells [5]; 120 h): virtually no apoptosis
number of viable colonies in live cell imaging (A431-mCh cells [7]): significantly reduced the number of viable colonies
growth kinetics in live cell imaging (A431-mCh cells [7]): did not alter growth kinetics
drug sensitivity of MSCs compared with cancer cells (in words) [11]: required significantly higher concentrations to kill MSCs than cancer cells
IC50 (Ad-MSC-GFP 3 cells [12]): 10000 nM
effect on A431 cells in γ-H2AX experiment (A431-mCh cells [8]; 10 µM, 5 days): almost completely eradicating A431 cells
DNA damage (γ-H2AX) (A431-mCh cells [8]): massive DNA damage
